# Assay: gradient 5% acetonitrile 3 min, to 50% in 2 min, to 85% in 15 min, held 3 min, 100 µL/min
# Details: column: Zorbax Extend-C18 2.1 x 50 mm; eluents: water / acetonitrile, 0.1% formic acid
# Method in brief: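 Using water and acetonitrile that each contained 0.1% formic acid, mixtures of ~100 pure standards were separated at 100 μL/min on a Zorbax Extend-C18 column (2.1 × 50 mm, 1.8 μm). The HPLC fed a quadrupole time-of-flight mass spectrometer working in positive and negative ionization mode, with dead and dwell volumes of 40 μL and 900 μL. Data were acquired over 3 months. Retention time was read from computationally picked adduct peaks after manual inspection of each.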
row,Compound,RP-LC retention time
1,Cc1ccc(N2CC(c3nc(-c4ccc5c(c4)ncn5CCC(=O)N4CCCC4)no3)CC2=O)cc1C (stereo not drawn),738 s
2,Cc1ccc(C)c(C(O)Cn2ccn3nc(-c4cccs4)cc3c2=O)c1 (stereo not drawn),915 s
3,COc1cccc(OCC2c3ccsc3CCN2C(=O)CN(C(C)=O)C(C)C)c1 (stereo not drawn),808 s
4,Cc1nc2cccnc2n1CCN1CCN(C(=O)Nc2ccc(Cl)cc2)CC1,610 s
5,O=S(=O)(c1ccc(-c2nnc(C3CC3)o2)o1)N1CCOCC1,717 s
6,CCSc1ccccc1C(=O)NCc1cc(-c2ccccc2)on1,864 s
7,CCOC(=O)c1cc(S(=O)(=O)N2CCCC2C(=O)Nc2ccc(Br)c(C)c2)cn1C (stereo not drawn),1080 s
8,O=C(NCCc1nc(-c2ccccc2)no1)c1sc2cccc(Cl)c2c1Cl,1200 s
9,COc1ccc(C2Cn3nnc(-c4nc(-c5ccccc5C)no4)c3CO2)cc1 (stereo not drawn),1200 s
10,CC[C@@H](CO)Nc1nc(NCc2ccc(-c3ccccn3)cc2)c2ncn(C(C)C)c2n1,632 s
11,O=C(NCCc1nc2cccnc2n1C1CCCC1)NCc1ccco1,652 s
12,COc1ccc(C2C(=O)N(C3CCCCC3)CC(=O)N2Cc2cccs2)cc1 (stereo not drawn),952 s
13,CSc1ccc(-c2nc3ncccn3c2Nc2cccc(C)c2)cc1,843 s
14,Cc1noc(C2(NC(=O)Cc3ccccc3C)CCCCC2)n1,884 s
15,Cc1ccccc1NC(=O)NCCn1c(C(F)(F)F)nc2cccnc21,736 s
16,CCOc1cccc(CN2C[C@@H]3C(=O)N(CCN4CCc5ccccc5C4)C(=O)[C@@H]3C2)c1,622 s
17,O=c1n(Cc2cccc(F)c2)nc2c(S(=O)(=O)N3CCN(c4ccc(F)cc4)CC3)cccn12,967 s

row,Compound,RP-LC retention time
1,O=C(C1=NN(Cc2ccccc2F)c2ccccc2S1(=O)=O)N1CCCCC1,939 s
2,CCc1nn2c(CNC(=O)c3cccc(F)c3)c(-c3ccccc3)nc2s1,909 s
3,C=CCNC(=O)Cc1cn2cc(Br)ccc2n1,557 s
4,COc1ccc(NC(=O)N2CCN(C3=CC4=NCC(C)N4C=N3)CC2)cc1 (stereo not drawn),599 s
5,Cc1ccccc1-c1noc(C2CCCN2S(=O)(=O)c2ccc3c(c2)CCCC3)n1 (stereo not drawn),1340 s
6,Cc1ccc(N2CCN(S(=O)(=O)c3ccc(-c4nnc(C5CC5)o4)o3)CC2)cc1,1040 s
7,CN(C)CCNC(=O)C1CCN(c2nc3ccc(-c4ccsc4)nc3s2)CC1,645 s
8,Cc1cnc(CCC2CCCN2C(=O)CC(F)(F)F)n1C(C)C (stereo not drawn),600 s
9,CCn1c(=O)c(N2CCC(NC(=O)Nc3cccc(Br)c3)CC2)nc2ccccc21,1040 s
10,O=C(NCc1ccco1)C1CCN(c2nc3cccnc3s2)CC1,683 s
11,Cc1cccc(S(=O)(=O)N2CCCC2c2nc(-c3cccc(C(F)(F)F)c3)no2)c1 (stereo not drawn),1200 s
12,CCOC(=O)C1=C(CN2CC(C)CC(C)C2)NC(=O)NC1c1ccc(OC(C)C)cc1 (stereo not drawn),708 s
13,CCN(CC)S(=O)(=O)c1ccc(Cl)c(C(=O)NCc2ccccn2)c1,676 s
14,O=C(NCc1cccnc1)C1CCN(c2cc(N3CCSCC3)ncn2)CC1,553 s
15,Cc1ccc2nc(C(=O)NCc3ccccc3C)cn2c1,686 s
16,O=c1ccc(-c2ccccc2)nn1CCc1nc(-c2ccc(Cl)cc2)no1,1040 s

# Reference: the METLIN SMRT retention time set (Domingo-Almenara et al. 2019)
